Laboratory results reported in US10632202B2, “Preservative containing compositions” (JOHNSON & JOHNSON CONSUMER INC., priority 2016, dated 2020).

system: fungi; assay: Observed contribution of nutrients to antifungal activity; type: cell-based; conditions: nutrient of the antimicrobial mixture

Row | Compound | contribution to the antifungal activity of the antimicrobial mixture
1 | CC(O)C(=O)O (stereo not shown) [lactate] | follows the glucose with regard to the significance of its contribution
2 | O=C1O[C@H]([C@@H](O)CO)C(O)=C1O [ascorbic acid] | contribute minimally
3 | NCC(=O)O [glycine] | contribute minimally
4 | O=C(O)CC(O)(CC(=O)O)C(=O)O [citrate] | contribute minimally
